Reference: the supplement of paper PMC10307832

Tests used:
Assay in all cases: relative viability (nuclei count vs DMSO), 5 days (fraction); higher = more cells survive
Sulindac + Linsitinib = compound: CC1=C(CC(=O)O)c2cc(F)ccc2/C1=C\c1ccc([S+](C)[O-])cc1 [Sulindac] + C[C@]1(O)C[C@@H](c2nc(-c3ccc4ccc(-c5ccccc5)nc4c3)c3c(N)nccn32)C1 [Linsitinib] (partner 1 µM)
In short: (§1)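 The day after seeding in 1536-well plates, lung cancer cell lines were treated by pin tool with a single drug, or with a fixed anchor-drug dose together with five library-drug doses (not always all listed) in √10 steps. After 5 days, a combined fix-and-stain solution (final 0.05% Triton X-100, 1% formaldehyde, 1 ug/ml Hoechst) was added. Nuclei counted on 4× images gave relative viability as treated counts over vehicle counts, reported as the median of duplicate plates.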

Sulindac + Alpelisib = compound: CC1=C(CC(=O)O)c2cc(F)ccc2/C1=C\c1ccc([S+](C)[O-])cc1 [Sulindac] + Cc1nc(NC(=O)N2CCC[C@H]2C(N)=O)sc1-c1ccnc(C(C)(C)C(F)(F)F)c1 [Alpelisib] (partner 2 µM)
In short: as §1

Sulindac + Crizotinib = compound: CC1=C(CC(=O)O)c2cc(F)ccc2/C1=C\c1ccc([S+](C)[O-])cc1 [Sulindac] + C[C@@H](Oc1cc(-c2cnn(C3CCNCC3)c2)cnc1N)c1c(Cl)ccc(F)c1Cl [Crizotinib] (partner 1 µM)
In short: as §1

Sulindac + Olaparib = compound: CC1=C(CC(=O)O)c2cc(F)ccc2/C1=C\c1ccc([S+](C)[O-])cc1 [Sulindac] + O=C(c1cc(Cc2n[nH]c(=O)c3ccccc23)ccc1F)N1CCN(C(=O)C2CC2)CC1 [Olaparib] (partner 8 µM)
In short: as §1

Row | Cell Line | relative viability (Sulindac + Linsitinib; first compound 0.08 µM) | relative viability (Sulindac + Linsitinib; first compound 0.253 µM) | relative viability (Sulindac + Linsitinib; first compound 0.8 µM) | relative viability (Sulindac + Linsitinib; first compound 2.53 µM) | relative viability (Sulindac + Linsitinib; first compound 8 µM) | relative viability (Sulindac + Alpelisib; first compound 0.08 µM) | relative viability (Sulindac + Alpelisib; first compound 0.253 µM) | relative viability (Sulindac + Alpelisib; first compound 0.8 µM) | relative viability (Sulindac + Alpelisib; first compound 2.53 µM) | relative viability (Sulindac + Alpelisib; first compound 8 µM) | relative viability (Sulindac + Crizotinib; first compound 0.08 µM) | relative viability (Sulindac + Crizotinib; first compound 0.253 µM) | relative viability (Sulindac + Crizotinib; first compound 0.8 µM) | relative viability (Sulindac + Crizotinib; first compound 2.53 µM) | relative viability (Sulindac + Crizotinib; first compound 8 µM) | relative viability (Sulindac + Olaparib; first compound 0.08 µM) | relative viability (Sulindac + Olaparib; first compound 0.253 µM) | relative viability (Sulindac + Olaparib; first compound 0.8 µM) | relative viability (Sulindac + Olaparib; first compound 2.53 µM) | relative viability (Sulindac + Olaparib; first compound 8 µM)
1 | NCI-H2405 | 1.01 | 0.934 | 0.852 | 0.918 | 1.13 | 0.725 | 0.794 | 0.713 | 0.796 | 0.917 | 0.907 | 0.899 | 0.701 | 0.85 | 0.939 | 0.93 | 0.851 | 0.86 | 0.831 | 1.08
2 | NCI-H3122 | 1.07 | 1.01 | 0.928 | 1.07 | 1.07 | 0.639 | 0.722 | 0.699 | 0.756 | 0.941 | 0.282 | 0.251 | 0.266 | 0.232 | 0.259 | 0.739 | 0.648 | 0.579 | 0.655 | 0.604
3 | PC-3 [JPC-3] | 0.932 | 0.95 | 0.951 | 0.905 | 0.984 | 1.18 | 1.03 | 0.95 | 1.08 | 1.04 | 1.09 | 1.06 | 0.959 | 1.02 | 1.02 | 1.36 | 1.09 | 0.941 | 1.13 | 1.25
4 | PC-14 | 1.01 | 1.02 | 0.708 | 1.02 | 1.07 | 0.986 | 1.16 | – | 1.13 | 1 | 0.942 | 0.891 | 0.726 | 0.911 | 1.02 | 0.271 | 0.321 | 0.272 | 0.209 | 0.272
5 | RERF-LC-KJ | 0.922 | 0.948 | 0.738 | 0.895 | 0.895 | 0.837 | 0.889 | 0.65 | 0.877 | 0.746 | 0.816 | 0.903 | 0.853 | 0.891 | 0.914 | 0.949 | 1.01 | 0.971 | 0.861 | 1.07
6 | SK-LU-1 | 1.13 | 1.27 | 1.19 | 1 | 1.5 | 1.11 | 1.02 | 0.964 | 0.936 | 1.23 | 0.844 | 1.22 | 0.781 | 0.975 | 1.26 | 0.498 | 0.525 | 0.446 | 0.407 | 0.536
7 | SK-MES-1 | 1.11 | 1.22 | 0.809 | 1.08 | 1.18 | 1.06 | 1.05 | 0.601 | 0.815 | 0.982 | 1.14 | 1.09 | 0.822 | 1.09 | 1.14 | 0.733 | 0.825 | 0.56 | 0.712 | 0.772
8 | SW 1573 | 0.834 | 0.788 | 0.804 | 0.95 | 0.722 | – | 0.706 | – | 0.793 | 0.934 | 0.825 | 0.742 | 0.766 | 0.869 | 0.867 | 0.52 | 0.523 | 0.528 | 0.478 | 0.551
